In patent US20240165272A1, “Liver-targeted fluorescence/photoacoustic dual-modal probe for early detecting drug-induced hepatic inflammation and autoimmune hepatitis” (BEIJING UNIVERSITY OF TECHNOLOGY, priority 2022, published 2024):

Legend:
[1] = tested on: HepG2 cells; assay: Biocompatibility study, CCK-8 assay; assay type: cell-based; conditions: 24 h exposure to 10 μM
Method: Inspired by the excellent responsiveness of the probe hCy-Tf-CA to O2·^−, its biocompatibility and potential for further applications in living cells were assessed. HepG2 cells were plated in a 96-well plates at […] and incubated overnight in the cell incubator. Then the cells were washed with culture medium and incubated with various concentrations of hCy-Tf-CA (1, 2, 4, 8, 10 μM) at 37° C. for 24 h. After removing the above solution, CCK-8 reagent diluted with culture medium was added to each well and incubated at 37° C. for 60 min. Finally, the absorbance was finally measured at 450 nm by a microplate reader. Cell viability was calculated using the following formula:
Calculation of cell viability: Cell viability (%)=(Aexperimental group−Ablank group)/(Acontrol group−Ablank group)×100%.

[2] = tested on: mouse model of drug-induced hepatic inflammation; assay: Fluorescence/photoacoustic dual-modal imaging of drug-induced (APAP) hepatic inflammation; assay type: in vivo, Balb/c female mice
Method: In order to visually detect hepatic O2·^− concentration and drug-induced hepatic inflammation by fluorescence/photoacoustic dual-modal imaging, Balb/c female mice were intraperitoneally injected with overdose of APAP (300 mg/Kg) to cause drug-induced hepatic inflammation, and PBS injected mice served as the control group. The probe hCy-Tf-CA (50 μM, 100 μL) were administrated intravenously for in vivo fluorescence/photoacoustic dual-modal imaging. Images at predetermined time points were recorded on IVIS imaging system (Perkin Elmer, λex=675 nm, λem=760 nm) and InVision 256-TF imaging system (iThera Medical, λex=710 nm).

[3] = Fluorescence response of hCy-Tf-CA to O2·^− in ethanol-phosphate buffer
Method: (§1) 10 μL of probe stock solution (1 mM) was added to 1 mL of ethanol-phosphate buffer solution (ethanol/PBS=1/1, v/v, pH=7.4). To characterize the responsiveness of hCy-Tf-CA, 40 μL O2·^− stock solution (2.5 mM) was added to above solution.
The reaction system was prepared under the same experimental conditions. […] That is due to the nucleophilic O2·^− cleavage of trifluoromethonium sulfonate, which restored the strong electron-donating phenol and it-conjugation on the fluorophore. […] The probe hCy-Tf-CA is an enhanced fluorescence probe.
Under the same experimental conditions, 10 μL of probe stock solution (1 mM) was added to 1 mL of ethanol-phosphate buffer solution, the O2·^− titration experiment was then carried out. The fluorescence intensity at 730 nm were tested 10 minutes later. […] (FIGS. 4 and 5).

[4] = Photoacoustic response of hCy-Tf-CA to O2·^−; conditions: probe 10 μM, O2·^− 100 μM, 10 min
Method: as §1
The reaction system was prepared under the same experimental conditions. […] The photoacoustic signal of hCy-Tf-CA only at 710 nm is very weak (FIG. 3).
Under the same experimental conditions, 10 μL of probe stock solution (1 mM) was added to 1 mL of ethanol-phosphate buffer solution, the O2·^− titration experiment then was carried out and the photoacoustic intensity at 710 nm were tested 10 minutes later.

[5] = tested on: HepG2 cells; assay: Fluorescence imaging of endogenous O2·^− in HepG2 cells; assay type: cell-based
Method: To evaluate the capacity of hCy-Tf-CA to image O2·^− fluctuation in living cells, HepG2 cells were plated in a glass-bottom dish for 24 h to 80% density before the experiment. Cell fluorescence imaging of hCy-Tf-CA was divided into five groups. In the first group, hCy-Tf-CA (10 μM) was incubated with cells for 30 min. In the second group, cells were pretreated with lipopolysaccharide (LPS, 1 μg/mL) and interferon-gamma (IFN-γ, 50 ng/mL) for 12 h, then washed twice with PBS buffer before incubating with hCy-Tf-CA (10 μM) for 30 min. In the third group, cells were pretreated with LPS (1 μg/mL), IFN-γ (50 ng/mL) and 2,2,6,6-tetramethylpiperidine-N-oxyl (TEMPO, 300 μM) for 12 h, then washed twice with PBS buffer before incubating with hCy-Tf-CA (10 μM) for 30 min. In the fourth and fifth groups, cells were pretreated with H2O2 or Na2SO3 (100 μM) for 30 min, then washed twice with PBS buffer before incubating with hCy-Tf-CA (10 μM) for 30 min. The cells were washed 3 times with PBS buffer before cell imaging. Fluorescence images of the cells were captured by a Nikon AX R microscope with DAPI channel (λex'404 nm, λem=425-475 nm) and Cy5.5 channel (λex=639 nm, λem=663-738).

[6] = tested on: mouse model of autoimmune hepatitis; assay: Fluorescence/photoacoustic dual-modal imaging of autoimmune hepatitis (Con A); assay type: in vivo, Balb/c female mice
Method: In order to visually detect autoimmune hepatitis by fluorescence/photoacoustic dual-modal imaging, Balb/c female mice were intravenously injected with a single dose Con A (20 mg/Kg, dissolved in 100 μL PBS) for 2 h to induce early autoimmune hepatitis, and the remaining mice were treated with PBS solution as controls. hCy-Tf-CA was then intravenously injected into mice for in vivo imaging, and representative NIRF/PA dual-modal images of different treated mice were recorded at chosen times. Images at predetermined time points were recorded on IVIS imaging system (Perkin Elmer, λex=675 nm, λem=760 nm) and InVision 256-TF imaging system (iThera Medical, λex=710 nm).

[7] = Selective response: fluorescence against potential interferents; conditions: probe 10 μM
Method: The specificity of hCy-Tf-CA was determined against various potential interferents (Na^+, K^+, Ca^2+, Mg^2+, Zn^2+, Cu^2+, HS^−, HClO, H2O2, ·OH, ONOO^−, glucose, glutathione, cysteine, vitamin C, nitroreductase, alkaline phosphatase, β-galactosidase and leucine aminopeptidase). Under the same experimental conditions, 10 μL of probe stock solution (1 mM) was added to 1 mL of ethanol-phosphate buffer solution. Then stock solutions of various potential interferents were respectively added to above solution, then the fluorescence intensity at 730 nm was tested. […] Therefore, these potential interferents barely effect on the selective response to O2·^−, implying that the probe hCy-Tf-CA prepared by the invention has good selectivity.

C[C@H](CCC(=O)NCCC[N+]1=C(/C=C/C2=C3Oc4cc(OS(=O)(=O)C(F)(F)F)c(Cl)cc4C=C3CCC2)C(C)(C)c2c1ccc1ccccc21)[C@H]1CC[C@H]2[C@@H]3[C@H](O)C[C@@H]4C[C@H](O)CC[C@]4(C)[C@H]3C[C@H](O)[C@]12C [hCy-Tf-CA]
cell viability [1]: more than 90% | ex vivo hepatic fluorescence signal, APAP-treated mice versus health mice ([2]; 2 h after intravenous administration): obviously higher | ex vivo organ distribution of fluorescence signal ([2]; 2 h after intravenous administration, liver versus heart, spleen, lung and kidney): mainly located in the liver | in vivo fluorescence signal intensity, APAP-treated mice versus control mice ([2]; 2 h post-injection, probe 50 μM 100 μL i.v., APAP 300 mg/Kg i.p.): significantly higher | photoacoustic signal in the liver, APAP-treated mice versus healthy mice ([2]; λex=710 nm, cross-sectional images): significantly higher | O2·^− concentration at which fluorescence intensity reached a plateau ([3]; probe 10 μM, 10 min, at 740 nm as printed): 100 µM | fluorescence intensity at 730 nm increase compared with probe alone ([3]; probe 10 μM, O2·^− 100 μM, 10 min, λex=680 nm, ethanol/PBS=1/1, pH=7.4): 17 fold | fluorescence intensity increase after reaction with O2·^− ([3]; summary statement): 17 times | photoacoustic signal enhancement at 710 nm after treatment with O2·^− [4]: 7 fold | intracellular fluorescence after LPS/IFN-γ in the presence of TEMPO ([5]; HepG2, LPS/IFN-γ plus TEMPO 300 μM for 12 h, probe 10 μM 30 min): largely suppressed | intracellular fluorescence, normal conditions ([5]; HepG2, probe 10 μM, 30 min, no pretreatment): weak fluorescence | fluorescence fluctuations in H2O2-treated or SO3^2−-treated cells ([5]; HepG2 pretreated with H2O2 or Na2SO3 100 μM for 30 min, probe 10 μM 30 min): negligible | intracellular fluorescence intensity after LPS/IFN-γ ([5]; HepG2 pretreated with LPS 1 μg/mL and IFN-γ 50 ng/mL for 12 h, probe 10 μM 30 min): significantly increased | in vivo fluorescence signal intensity in the liver region of Con A-treated mice over time ([6]; Con A 20 mg/Kg i.v. for 2 h, probe i.v.): gradually enhanced | rate of increase of hepatic photoacoustic signal, Con A-treated mice versus control mice ([6]; after injection of probe): increased faster | photoacoustic signal in the liver, Con A-treated mice versus healthy mice ([6]; at 2 h, λex=710 nm): obviously higher | location of fluorescence signals (ex vivo) ([6]; both groups (Con A-treated and control)): mainly located in the liver | ex vivo fluorescence signals, Con A-treated mice versus control mice ([6]; mouse, in vivo): apparently brighter | fluorescence response to O2·^− in the selectivity test ([7]; 730 nm): significant response | fluorescence response at 730 nm to potential interferents ([7]; analytes 100 μM, enzyme 0.1 U·mL^−1): barely respond
